Laboratory results taken from US20250042891A1, “Compound containing structure of a heteroaromatic ring, pharmaceutical composition thereof and application thereof” (SHANGHAI YINGLI PHARMACEUTICAL CO., LTD, priority 2023, published 2025).

Columns and labels:
[1] = tested on: HCC1395; test: CTG assay for proliferation inhibition of cell lines; format: cell-based; details: HCC1395, 7 days, CellTiter Glo
Experimental: (§1) The assay was conducted on either 384-well plates or 96-well plates. The procedures are as follows:
(§2) The cell suspensions were added to 384- or 96-well plates (384-well plate: 50 μL; 96-well plate: 100 μL) except for peripheral wells. The plates were incubated in a carbon dioxide incubator overnight, HCC1395, HCC1428 and NCI-H460 were placed in a carbon dioxide incubator of 5%, […] overnight. Prepared compounds (10 concentration gradients by serial 3-fold dilution) were added to the wells using the HPD300 micro-dosing instrument. The cell plates were incubated in a carbon dioxide incubator for 7 days. HCC1395, HCC1428 and NCI-H460 were incubated in a 5%, 37° CO2 incubator. On the day of plate measurement, 384- or 96-well plates were first equilibrated at room temperature for 10-30 minutes, then to the 384- or 96-well plate was added CellTiter Glo reagent (384-well plate: 25 μL; 96-well plate: 100 μL), shaken for 10 minutes away from light, and incubated for 10 minutes. The incubated plates were placed into Victor NIVO reader plates, and the pharmacodynamic inhibition curves were plotted and IC50 values were calculated using XLFit.

[2] = target: PARG (389-976) (Homo sapiens (Human), UniProt Q86W56); test: PARG enzyme inhibition assay (TR-FRET); format: biochemical
Experimental: PARG in vitro assays were conducted in standard 384-well plates in a total volume of 15 μL. 5 μL of PARG (389-976) (manufactured by Chempartner Chemical Co., Ltd.) in buffer (50 mM Tris-HCL 7.5, 30 mM KCl, 1 mM EDTA, 3 mM DTT, tween-20 0.01%, BSA 0.025%) was added at a final concentration of 1.5 pM to the 384-well plates containing the compounds to be tested, which was incubated for 30 min at room temperature. To the above mixture was added 5 μL Bio PARylated His-TEV-PARP1(2-1014) substrate (manufactured by Chempartner Chemical Co., Ltd.) at a final concentration of 12 nM, after addition, the resulting mixture was incubated for 30 minutes at room temperature. Then to the mixture was added detection reagent (5 μL) which was buffered with 50 mM Tris-HCL 7.5, 30 mM KCl, 1 mM EDTA, 3 mM DTT, tween-20 0.01%, BSA 0.025%, and consisted of 3 μM of compound PDD00017273 and 9 nM Mab anti-6HIS XL665 (Cisbio: 61HISXLA) and 0.9 nM streptavidin affinity terbium cryptate (Cisbio:610SATLA), all at 3× working concentrations (final concentrations of 1 μM, 3 nM and 0.3 nM, respectively). After 120 min incubation in the dark at room temperature, TR-FRET signals were measured at Ex 340 and Em 665 and Em 615. The ratio for each well was calculated as Em 665/Em 615 and the compound inhibition rate was calculated based on the obtained data.

[3] = tested on: HCC1428; test: CTG assay for proliferation inhibition of cell lines; format: cell-based; details: HCC1428, 7 days, CellTiter Glo
Experimental: as §1, §2

[4] = class symbol, Bio PARylated His-TEV-PARP1 substrate, TR-FRET
[5] = numeric value in parentheses under the class symbol

PARG (389-976), sequence (Q86W56 389-976): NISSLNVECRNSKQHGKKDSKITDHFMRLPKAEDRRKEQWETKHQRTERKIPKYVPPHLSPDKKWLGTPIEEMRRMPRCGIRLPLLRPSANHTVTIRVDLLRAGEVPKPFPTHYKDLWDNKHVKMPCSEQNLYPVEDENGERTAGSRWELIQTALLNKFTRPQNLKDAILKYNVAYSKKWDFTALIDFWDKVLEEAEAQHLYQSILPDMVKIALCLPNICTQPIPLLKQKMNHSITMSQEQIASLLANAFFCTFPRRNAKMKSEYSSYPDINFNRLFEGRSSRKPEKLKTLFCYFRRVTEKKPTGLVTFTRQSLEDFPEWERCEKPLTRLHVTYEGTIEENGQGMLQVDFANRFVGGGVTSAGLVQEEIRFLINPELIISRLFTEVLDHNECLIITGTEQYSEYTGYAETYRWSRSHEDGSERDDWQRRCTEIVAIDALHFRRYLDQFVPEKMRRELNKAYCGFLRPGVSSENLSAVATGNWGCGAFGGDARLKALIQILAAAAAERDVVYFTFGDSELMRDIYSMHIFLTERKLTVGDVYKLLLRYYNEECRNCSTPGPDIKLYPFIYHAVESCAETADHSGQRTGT

Structure (SMILES) | IC50 [1] | IC50 [2, 4] | IC50 [3] | IC50 [2, 5]
CC1=C(c2cc(S(=O)(=O)NC3(C#N)CC3)cc3c(-c4nnc(C(F)(F)F)s4)nn(C)c23)CCN(S(=O)(=O)C(C)C)C1 [Compound 75] | 0.0352 µM | < 1 nM | – | –
CC(C)S(=O)(=O)N1CCC=C(c2cc(S(=O)(=O)NC3(C#N)CC3)cc3c(-c4nnc(C(F)F)s4)nn(C)c23)C1 [Compound 4] | – | 1 to 10 nM | – | –
CC(C)S(=O)(=O)N1CCC(O)(c2cc(S(=O)(=O)NC3(C#N)CC3)cc3c(-c4nnc(C(F)F)s4)n[nH]c23)CC1 [Compound 27] | – | 1 to 10 nM | – | –
CC(C)Sc1ncc(-c2cc(S(=O)(=O)NC3(C#N)CC3)cc3c(-c4nnc(C(F)F)s4)nn(C)c23)cn1 [Compound 41] | – | 100 to 1000 nM | – | –
CC(C)S(=O)(=O)N1CCC(c2cc(S(=O)(=O)NC3(C#N)CC3)cc3c(-c4nnc(C(F)(F)F)s4)nn(C)c23)=C(C#N)C1 [Compound 64] | – | < 1 nM | 0.0882 µM | –
CC(C)[S+]([O-])c1ncc(-c2cc(S(=O)(=O)NC3(C#N)CC3)cc3c(-c4nnc(C(F)F)s4)nn(C)c23)cn1 (centres unmarked) [Compound 42] | – | 1 to 10 nM | – | –
Cn1nc(-c2nnc(C(F)(F)F)s2)c2cc(S(=O)(=O)NC3(C#N)CC3)cc(C3=CCN(S(=O)(=O)c4cccnc4)CC3)c21 [Compound 51] | – | 1 to 10 nM | 2.52 µM | –
CC(C)S(=O)(=O)N1CCN(c2c(F)c(S(=O)(=O)NC3(C#N)CC3)cc3c(-c4nnc(C(F)(F)F)s4)nn(C)c23)CC1 [Compound 56] | 0.0475 µM | < 1 nM | 0.0472 µM | –
CC(C)S(=O)(=O)c1ccc(-c2cc(S(=O)(=O)NC3(C#N)CC3)cc3c(-c4nnc(C(F)(F)F)s4)nn(C)c23)nc1 [Compound 49] | – | 100 to 1000 nM | – | –
COCCn1nc(-c2nnc(C(F)F)s2)c2cc(S(=O)(=O)NC3(C#N)CC3)cc(C3=CCN(S(=O)(=O)C(C)C)CC3)c21 [Compound 1] | – | < 1 nM | – | 0.2 nM
CC(C)S(=O)(=O)N1CCC(O)(c2cc(S(=O)(=O)NC3(C#N)CC3)cc3c(-c4nnc(C(F)F)s4)nn(C)c23)CC1 [Compound 28] | – | 1 to 10 nM | – | –
CC(C)S(=O)(=O)N1CCC(c2cc(S(=O)(=O)NC3(C#N)CC3)cc3c(-c4nnc(C(F)F)s4)nn(C)c23)=C(C(=O)O)C1 [Compound 34] | – | 10 to 100 nM | – | –
CC(C)S(=O)(=O)N1CCN(c2cc(S(=O)(=O)NC3(C#N)CC3)cc3c(-c4nnc(C(F)(F)F)s4)nn(C)c23)C=N1 [Compound 85] | – | < 1 nM | – | –
CC(C)S(=O)(=O)N1CCC(c2cc(S(=O)(=O)NC3(C#N)CC3)cc3c(-c4nnc(C(F)F)s4)nn(C)c23)=C(C=O)C1 [Compound 70] | 0.27 µM | < 1 nM | 0.343 µM | –
CC(C)S(=O)(=O)N1CCC(c2cc(S(=O)(=O)NC3(C#N)CC3)cc3c(-c4nnc(C(F)(F)F)s4)nn(C)c23)=C(CN(C)C)C1 [Compound 74] | 0.156 µM | 1 to 10 nM | 0.0621 µM | –
CC(C)S(=O)(=O)N1CC=C(c2cc(S(=O)(=O)NC3(C(N)=O)CC3)cc3c(-c4nnc(C(F)F)s4)nn(C)c23)CC1 [Compound 17] | – | 1 to 10 nM | – | –
CC(C)CS(=O)(=O)N1CC=C(c2cc(S(=O)(=O)NC3(C#N)CC3)cc3c(-c4nnc(C(F)F)s4)nn(C)c23)CC1 [Compound 13] | – | 1 to 10 nM | – | –
CC(C)S(=O)(=O)N1CCC(c2cc(S(=O)(=O)NC3(C#N)CC3)cc3c(-c4nnc(C(F)F)s4)nn(C)c23)=C(F)C1 [Compound 68] | – | < 1 nM | 0.47 µM | –
CC(C)[S+]([O-])c1ccc(-c2cc(S(=O)(=O)NC3(C#N)CC3)cc3c(-c4nnc(C(F)(F)F)s4)nn(C)c23)cn1 (centres unmarked) [Compound 46] | – | < 1 nM | 1.7 µM | –
CC(C)S(=O)(=O)N1CC=C(c2cc(S(=O)(=O)NC3(C#N)CC3)cc3c(-c4nnc(C(F)F)s4)nn(CC(N)=O)c23)CC1 [Compound 66] | – | 1 to 10 nM | – | –

Structure (SMILES) | IC50 [1] | IC50 [2, 4] | IC50 [3] | IC50 [2, 5]
CC(C)S(=O)(=O)N1CC=C(c2cc(S(=O)(=O)NC3(C#N)CC3)cc3c2ccn3-c2nnc(C(F)(F)F)s2)CC1 [Compound 65] | – | 1 to 10 nM | – | –
CC(C)S(=O)(=O)c1ccc(-c2cc(S(=O)(=O)NC3(C#N)CC3)cc3c(-c4nnc(C(F)F)s4)nn(C)c23)nc1 [Compound 63] | – | 100 to 1000 nM | – | –
CC(C)S(=O)(=O)N1CC=C(c2cc(S(=O)(=O)NC3(C#N)CC3)cc3c(-c4nnc(C(F)(F)F)s4)nn(Cc4ccccc4)c23)CC1 [Compound 62] | – | 10 to 100 nM | – | –
COCCn1nc(-c2nnc(C(F)F)s2)c2cc(S(=O)(=O)NC3(C#N)CC3)cc(N3CCN(S(=O)(=O)C(C)C)CC3)c21 [Compound 2] | – | < 1 nM | 0.413 µM | 0.27 nM
CC(C)S(=O)(=O)N1CC=C(c2cc(S(=O)(=O)NC3(C#N)CC3)cc3c2nnn3-c2nnc(C(F)(F)F)s2)CC1 [Compound 80] | – | 10 to 100 nM | – | –
CN(C)S(=O)(=O)N1CCN(c2cc(S(=O)(=O)NC3(C#N)CC3)cc3c(-c4nnc(C(F)F)s4)nn(C)c23)CC1 [Compound 3] | 0.386 µM | 1 to 10 nM | – | 1.64 nM
Cc1cc(Cn2c(=O)n(Cc3cnc(C)s3)c(=O)c3cc(S(=O)(=O)NC4(C)CC4)ccc32)n(C)n1 [PDD 00017273, reference compound] | – | 1 to 10 nM | – | –
Cn1nc(-c2nnc(C(F)(F)F)s2)c2cc(S(=O)(=O)NC3(C#N)CC3)cc(C3=CCN(S(=O)(=O)c4ccccc4)CC3)c21 [Compound 50] | – | 10 to 100 nM | 2.33 µM | –
CC(C)S(=O)(=O)N1CC=C(c2cc(S(=O)(=O)NC3(C#N)CC3)cc3c(-c4nnc(C(F)F)s4)nn(C)c23)C(F)(F)C1 [Compound 67] | – | < 1 nM | 0.203 µM | –
CC(C)S(=O)(=O)N1CC=C(c2cc(S(=O)(=O)NC3(C#N)CC3)cc3c(-c4nnc(C(F)F)o4)nn(C)c23)CC1 [Compound 6] | 0.442 µM | < 1 nM | – | –
Cn1nc(-c2nnc(C(F)F)s2)c2cc(S(=O)(=O)NC3(C#N)CC3)cc(C3=CCN(S(=O)(=O)C4CC4)CC3)c21 [Compound 11] | – | < 1 nM | – | –
CC(C)S(=O)(=O)N1CC=C(c2cc(S(=O)(=O)NC3(C#N)CC3)cc3c(-c4nnc(C(F)F)s4)csc23)CC1 [Compound 10] | – | 1 to 10 nM | – | –
CC(C)S(=O)(=O)N1CCC(c2cc(S(=O)(=O)NC3(C#N)CC3)cc3c(-c4nnc(C(F)(F)F)s4)nn(C)c23)=C(C(=O)O)C1 [Compound 54] | – | 10 to 100 nM | – | –
CC(C)S(=O)(=O)c1ncc(-c2cc(S(=O)(=O)NC3(C#N)CC3)cc3c(-c4nnc(C(F)F)s4)nn(C)c23)cn1 [Compound 43] | – | 100 to 1000 nM | – | –
CC(C)S(=O)(=O)c1ccc(-c2cc(S(=O)(=O)NC3(C#N)CC3)cc3c(-c4nnc(C(F)(F)F)s4)nn(C)c23)cn1 [Compound 47] | – | 1 to 10 nM | 1.91 µM | –
CC(C)S(=O)(=O)N1CC=C(c2cc(S(=O)(=O)NC3(C#N)CC3)cc3c(-c4cc(C(F)(F)F)nn4C)nn(C)c23)CC1 [Compound 81] | – | 100 to 1000 nM | – | –
CC(C)SC1CC=C(c2cc(S(=O)(=O)NC3(C#N)CC3)cc3c(-c4nnc(C(F)F)s4)nn(C)c23)CC1 (centres unmarked) [Compound 29] | – | 10 to 100 nM | – | –
CC(C)S(=O)(=O)N1CC=C(c2cc(S(=O)(=O)NC3(C(N)=O)CC3)cc3c(-c4nnc(C(F)(F)F)s4)nn(C)c23)CC1 [Compound 57] | – | 10 to 100 nM | – | –
CC(C)S(=O)(=O)N1CCN(c2cc(S(=O)(=O)NC3(C#N)CC3)cc3c2cnn3-c2nnc(C(F)F)s2)CC1 [Compound 8] | – | 1 to 10 nM | – | –
